Data: paper PMC8319603, “Developing C2-Aroyl Indoles as Novel Inhibitors of IDO1 and Understanding Their Mechanism of Inhibition via Mass Spectroscopy, QM/MM Calculations and Molecular Dynamics Simulation” (Frontiers in Chemistry, 2021)
Converted amounts (≈) assume the structure as drawn. Where two headings read alike, the source gives them in different places.

Tests used:
[1] = Log P determination (octanol/water); type: physicochemical
From the text: (§1) For the DMPK studies of the compound 8a-d we used rat as well as human plasmas. Rat plasma was purchased from Hylasco Biotechnology Pvt. Ltd.™ Hyderabad, India. We have not performed any in vivo experiments for this manuscript neither for animals nor for humans. […] Also please note the blood plasma was obtained from the blood of Dr Srinivas R Maddi, who donated it and is the co-author of this article. The DMPK studies were supplemented by kinetic solubility, Log p and Log D determinations, PAMPA permeability, Metabolic and Plasma stability in rat and human, and finally the plasma folding in rat and human. A thorough discussion of each step is mentioned in the supplementary information. […]
Octanol and buffer layers were analysed by HPLC -UV by
adjusting the needle height for each Octanol and buffer and the amount of compound distributed i nto

[2] = Plasma protein binding in human plasma (rapid equilibrium dialysis); type: in vitro ADME; details: pH 7.4, human plasma
From the text: as §1
Plasma protein binding in rat and human plasma: To evaluate the ability of compound to bind the plasma proteins, the most common approach of plasma protein binding using rapid equilibrium dialysis device ( RED inserts) used. Compounds were tested at a final concentration of 10 μM in mouse, rat and human plasma. An aliquot of 500 μL plasma containing compound 3k was added in first half (plasma side) of the well of RED device. An aliquot of 300 μL of 100 mM sodium phosphate buffer pH 7.4 was added in the second half (buffer side) of the Insert. The plate containing plasma and […]

Stability in rat plasma = type: in vitro ADME
From the text: as §1
Stability in rat and human plasma: Plasma stability is defined as the percentage of parent compound lost over time. The frozen plasma was thawed at room temperature and centrifuged at 1400 rpm 4 ℃, for 15 minutes. Approximately 90% of the clear supernatant fraction was transferred to a separate tube and was used for assay. The incubation mixtures consisted of human and rat palsma and compound (1 μM) or positive control (propanthelin, 1 μM) and incubated for 120 min at 37℃ in shaker with 500 rpm. All reactions were terminated using 200 μL of ice-cold acetonitrile containing internal standard (150 ng/mL of telmisartan) at 0, 15, 30, 60 and 120 min and centrifuged at 4000 rpm (Eppendorf, Germany) for 20min. The supernatants thus obtained were analyzed on LC-MS/MS to monitor the disappearance of compound. […]

[3] = biological target: T1, recombinant protein of human IDO1 enzyme (Homo sapiens, UniProt P14902); experiment: IDO1 enzymatic assay in vitro (kynurenine formation, absorbance 492 nm); type: biochemical; details: for IC50: read-out: IC50 against IDO1
T1 construct: purchased Biovision P1096
T1 sequence (P14902 whole entry): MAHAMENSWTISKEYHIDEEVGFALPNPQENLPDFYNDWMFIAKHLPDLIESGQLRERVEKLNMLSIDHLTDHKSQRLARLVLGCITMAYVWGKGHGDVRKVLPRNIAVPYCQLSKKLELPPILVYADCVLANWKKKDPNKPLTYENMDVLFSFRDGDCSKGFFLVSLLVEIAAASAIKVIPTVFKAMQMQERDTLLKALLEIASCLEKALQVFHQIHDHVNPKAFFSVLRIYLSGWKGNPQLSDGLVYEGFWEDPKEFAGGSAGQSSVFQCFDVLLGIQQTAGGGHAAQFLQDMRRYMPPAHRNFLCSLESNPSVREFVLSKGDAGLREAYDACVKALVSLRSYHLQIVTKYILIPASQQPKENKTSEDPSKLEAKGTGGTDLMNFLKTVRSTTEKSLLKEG
Protocol: (§2) The recombinant human IDO/TDO protein were purchased from Biovision (Catalog no.: P1096 human recombinant IDO1 and CSB-YP023351HU human recombinant TDO2). All the other HPLC grade solvent were purchased from Merck Pvt. Ltd. The IDO/TDO assays were performed according to the reported procedures.1 and 2, the details of which is mentioned in the SI.
(§3) 20 µL of IDO1/TDO2 protein (1µg/ml concentration) was added and incubates for 10 min. After that 20 µL of 2 mM L-tryptophan was added and then treated with different test compounds concentration […]
(§4) The plate was then sealed well for 2hr incubation process at 37°C. After incubation, 40 µL of 30% TCA solution was added and again incubated for 15 min at 60 °C, the samples were centrifuged for 15 min at 13000 rpm at 4 °C. The 100 µL of supernatant was transferred in fresh 96 well plate and treated with 100 µL of freshly prepared 2% Ehlrich reagent which was then analyzed by absorbance plate reader at 492 nm to measure the extent of kynurenine formation. The DMSO content in the sample was 0.005 %. The final concentration of the compound in deep well plate was 5 µM. The IC50 values were calculated in triplicate by using GraphPadPrism […]
(§5) 1. Water was substituted with L-tryphtophan
(§6) 2. Water was substituted with L-tryhtophan and rhIDO/ rhTDO protein.
(§7) A = IDO activity in presence of inhibitor

[4] = biological target: T2, recombinant protein of human TDO2 enzyme (Homo sapiens, UniProt P48775); experiment: TDO2 enzymatic assay in vitro (kynurenine formation, absorbance 492 nm); type: biochemical; details: read-out: IC50 against TDO2
T2 construct: purchased Biovision CSB-YP023351HU
T2 sequence (P48775 whole entry): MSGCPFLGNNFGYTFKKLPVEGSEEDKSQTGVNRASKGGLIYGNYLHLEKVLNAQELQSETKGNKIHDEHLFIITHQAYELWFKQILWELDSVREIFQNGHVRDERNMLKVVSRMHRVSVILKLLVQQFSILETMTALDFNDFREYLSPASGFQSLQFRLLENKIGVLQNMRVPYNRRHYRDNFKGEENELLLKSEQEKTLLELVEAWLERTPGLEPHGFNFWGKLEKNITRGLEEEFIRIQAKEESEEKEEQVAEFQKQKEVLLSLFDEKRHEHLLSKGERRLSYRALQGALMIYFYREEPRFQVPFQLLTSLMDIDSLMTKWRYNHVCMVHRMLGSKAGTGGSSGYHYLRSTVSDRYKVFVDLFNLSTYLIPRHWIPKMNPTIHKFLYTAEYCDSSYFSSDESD
Protocol: as §2, §3, §4, §5, §6, §7

Kinetic solubility = type: physicochemical; details: for solubility kinetic at 18 h: phosphate buffered saline, aqueous buffer, kinetic from dmso stock, at 1 mg/ml in phosphate buffer at pH 7.4, read-out: Kinetic solubility of the compounds
From the text: as §1
Kinetic solubility: Solubility of the compounds was dete rmined by incubating the compound at 500
µM concentration in phosphate buffer saline, pH7.4 for 18 hours with constant vortex at 500 rpm.
After incubation period, samples were centrifuged and supernatant was injected into HPLC to
determine the solubility. […]

PAMPA permeability = type: in vitro ADME; details: for Papp at 5 h, 100 µM: phosphate buffer at pH 7.4
From the text: as §1
PAMPA permeability: PAMPA permeability was determined by addition of the compounds to the donor wells at 100µM concentration in a total volume of 300µL in triplicates. The acceptor wells were filled with 200µL of phosphate buffered saline, pH 7.4, while maintaining 5% DMSO concentration on both sides. The plates were sandwiched and incubated for 5hours at room temperature. After incubation, 150µL of the sample from both donor and receiver wells was collected and centrifuged at […]
4000rpm for 20 minutes. […]

[5] = 10 μM, read-out: Human plasma protein binding %Ge bound (converted)
[6] = 10 μM, read-out: Human plasma protein binding %Ge free
[7] = read-out: Fraction unbound in human plasma
[8] = recombinant human IDO1, dose response study

| logP [1] | fraction unbound at 10 μM [2, 5] | fraction unbound at 10 μM [2, 6] | fraction unbound at 10 μM [2, 7] | Rat plasma stability %Ge remaining after 120 min (Stability in rat plasma) [%] | Percentage inhibition of IDO1 ([3]; 5 μM concentration of compound, 5 µM) [%] | inhibition at 5 µM ([3]; 5 μM concentration of compound, read-out: Percentage inhibition of IDO1) [%] | IC50 [3, 8] [µM] | IC50 [4] [µM] | Solubility (Kinetic solubility) | solubility kinetic at 18 h (Kinetic solubility) [µg/mL] | Permeability (PAMPA permeability) | Papp at 5 h, 100 µM (PAMPA permeability) [×10⁻⁶ cm/s] | Selectivity for IDO over TDO ([3]; IDO vs TDO) | IC50 ([3]; recombinant human IDO1) [µM] | SMILES |
| --- | --- | --- | --- | --- | --- | --- | --- | --- | --- | --- | --- | --- | --- | --- | --- |
| > 3.5 | 0.0064 | 0.0064 | 0.0064 | 84.5 | 37 | ~40 | 1.45 | 6.95 | very good | 64.1 (≈ 145 µM) | very good | 6.8 | – | – | CC(=O)NCCc1c(C(=O)c2cc(C(F)(F)F)cc(C(F)(F)F)c2)[nH]c2ccccc12 [8a] |
| 2.67 | 0.0952 | 0.0952 | 0.095 | 91.3 | – | – | – | 9.16 | very good | 56.9 (≈ 162 µM) | very good | 15.4 | reasonable selectivity | 0.18 | CC(=O)NCCc1c(C(=O)c2ccc([N+](=O)[O-])cc2)[nH]c2ccccc12 [8d] |
| 2.88 | 0.0213 | 0.0213 | 0.021 | 96.3 | – | – | 1.52 | 16.8 | very good | 67.4 (≈ 209 µM) | very good | 32.3 | – | – | COC(=O)NCCc1c(C(=O)c2ccccc2)[nH]c2ccccc12 [8e] |
